According to patent US5288743A, “Indole carboxylate derivatives which inhibit leukotriene biosynthesis” (Abbott Laboratories, priority 1992, dated 1994):

Key:
[1] = tested on: LTB4 biosynthesis in human whole blood; assay: Inhibition of calcium ionophore A23187-induced LTB4 biosynthesis in human whole blood; format: cell-based; details: 0.5 h; human heparinized whole blood, A23187 50 μM, 30 minutes at 37° C., LTB4 by radioimmunoassay
Method: The assay using human heparinized whole blood was incubated for 30 minutes at 37° C. after adding 50 μM of ionophore A23187. The plasma layer was obtained by centrifugation and deproteinized by the addition of four volumes of methanol. The methanol extract was analyzed for LTB4 using a commercially available radioimmunoassay.

[2] = tested on: LTB4 biosynthesis in human PMNL; assay: Inhibition of calcium ionophore A23187-induced LTB4 biosynthesis in human polymorphonuclear leukocytes (PMNL); format: cell-based; details: human PMNL (5×10^6 cells/250 μL), 15 min preincubation at 37° C., A23187 8.3 μM, 10 min, LTB4 by HPLC
Method: Inhibition of leukotriene biosynthesis was evaluated in assays, involving calcium ionophore-induced LTB4 biosynthesis expressed by human polymorphonuclear leukocytes (PMNL) or human whole blood. Human PMNL were isolated from heparinized (20 USP units/mL) venous blood using Ficoll-Hypaque Mono-Poly Resolving Medium. Human PMNL suspensions (5×10^6 cells/250 μL) were preincubated with test compounds or vehicle for 15 min at 37° C. followed by calcium ionophore A23187 challenge (final concentration of 8.3 μM) and the reaction terminated after 10 min by adding two volumes of methanol containing prostaglandin B2 as an internal recovery standard. The methanol extracts were analyzed for LTB4 content by HPLC.

[3] = tested on: leukotriene biosynthesis; assay: Inhibition of leukotriene biosynthesis in vivo, rat peritoneal anaphylaxis model, oral administration; details: for percent inhibition of leukotriene biosynthesis: oral dose of 30 μmol/kg, gavage one hour prior to antigen challenge
Method: Inhibition of the biosynthesis of leukotrienes in vivo after oral administration of compound was determined using a rat peritoneal anaphylaxis model in a similar manner as that described by Young and coworkers (Young, P. R.; Dyer, R. D.; Carter, G. W. Fed. Proc., Fed. Am. Soc. Exp. Biol. 1985, 44, 1185). In this model rats were injected intraperitoneally (ip) with rabbit antibody to bovine serum albumin (BSA) and three hours later injected ip with BSA to induce an antigen-antibody response. Rats were sacrificed 15 minutes after this challenge and the peritoneal fluids were collected and analyzed for leukotriene levels. Test compounds were administered by gavage one hour prior to the antigen challenge. Percent inhibition values were determined by comparing the treatment group to the mean of the control group. […] Compounds 5, 8, and 9 inhibit>50% leukotriene biosynthesis with an oral dose of 30 μmol/kg.

Compound	IC50 [1] [nM]	IC50 [2] [nM]	percent inhibition of leukotriene biosynthesis [3] [%]	ED50 ([3]; 1 h, po (gavage) one hour prior to antigen challenge, read-out: inhibits leukotriene biosynthesis, ED50) [mg/kg]
CC(C)(C)Sc1c(CC(C)(C)C(=O)O)n(Cc2ccc(Cl)cc2)c2ccc(OCc3cccc(Cl)n3)cc12 [Example 8, 3-[1-(4-chlorobenzyl)-5-(6-chloropyrid-2-ylmethoxy)-3-(1,1-dimethylethylthio)indol-2-yl]-2,2-dimethylpropionic acid]	110	17	> 50	–
CC(C)(C)Sc1c(CC(C)(C)C(=O)O)n(Cc2ccc(Cl)cc2)c2ccc(OCc3ccc(Cl)s3)cc12 [Example 6, 3-[1-(4-chlorobenzyl)-5-(5-chlorothien-2-ylmethoxy)-3-(1,1-dimethylethylthio)indol-2-yl]-2,2-dimethylpropionic acid]	3200	< 800	–	–
CC(C)(C)Sc1c(CC(C)(C)C(=O)O)n(Cc2ccc(Cl)cc2)c2ccc(Oc3ccccn3)cc12 [Example 5, 3-[1-(4-chlorobenzyl)-3-(1,1-dimethylethylthio)-5-(pyrid-2-yloxy)indol-2-yl]-2,2-dimethylpropionic acid]	2470	15	> 50	–
Cc1cc(C)nc(COc2ccc3c(c2)c(SC(C)(C)C)c(CC(C)(C)C(=O)O)n3Cc2ccc(Cl)cc2)n1 [Example 7, 3-[1-(4-chlorobenzyl)-3-(1,1-dimethylethylthio)-5-(4,6-dimethylpyrimid-2-ylmethoxy)indol-2-yl]-2,2-dimethylpropionic acid]	1600	30	–	–
CC(C)(C)Sc1c(CC(C)(C)C(=O)O)n(Cc2ccc(Cl)cc2)c2ccc(OCc3ccncc3)cc12 [Example 2, 3-[1-(4-chlorobenzyl)-3-(1,1-dimethylethylthio)-5-(pyrid-4-ylmethoxy)-indol-2-yl]-2,2-dimethylpropionic acid]	840	< 100	–	–
CC(C)(C)Sc1c(CC(C)(C)C(=O)O)n(Cc2ccc(Cl)cc2)c2ccc(OCc3ccccn3)cc12 [Example 3, 3-[1-(4-chlorobenzyl)-3-(1,1-dimethylethylthio)-5-(pyrid-2-ylmethoxy)indol-2-yl]-2,2-dimethylpropionic acid]	50	< 50	–	0.1
CC(C)(C)Sc1c(CC(C)(C)C(=O)O)n(Cc2ccc(Cl)cc2)c2ccc(OCc3cscn3)cc12 [Example 9, 3-[1-(4-chlorobenzyl)-3-(1,1-dimethylethylthio)-5-(thiazol-4-ylmethoxy)indol-2-yl]-2,2-dimethylpropionic acid]	40	4.4	> 50	–
CC(C)(C)Sc1c(CC(C)(C)C(=O)O)n(Cc2ccc(Cl)cc2)c2ccc(OCc3cccnc3)cc12 [Example 1, 3-[1-(4-chlorobenzyl)-3-(1,1-dimethylethylthio)-5-(pyrid-3-ylmethoxy)-indol-2-yl]-2,2-dimethylpropionic acid]	1090	17	–	–
CC(C)(C)Sc1c(CC(C)(C)C(=O)O)n(Cc2ccc(Cl)cc2)c2ccc(OCc3ccc4ccccc4c3)cc12 [Example 4, 3-[1-(4-chlorobenzyl)-3-(1,1-dimethylethylthio)-5-(napth-2-ylmethoxy)indol-2-yl]-2,2-dimethylpropionic acid]	4420	12	–	–
CC(C)(C)Sc1c(CC(C)(C)C(=O)O)n(Cc2ccc(Cl)cc2)c2ccc(OCc3cccs3)cc12 [Example 10, 3-[1-(4-chlorobenzyl)-3-(1,1-dimethylethylthio)-5-(thien-2-ylmethoxy)indol-2-yl]-2,2-dimethylpropionic acid]	1400	7	–	–
